For data set [1], the system named is recombinant CHO cells. The following applies: batch culture, end of the production run (after 8 days of culture); cited from earlier work.
The test system of data set [2] is recombinant CHO cells. The following applies: perfusion batch culture, within 6 days of treatment; cited from earlier work.
Data set [3] relates to CHO-S cells expressing IgG1 mAb1. Nature of the data set: Fed-batch cell culture in microplates, cells expressing mAb1, with DIDS. The format is cell-based, Chinese hamster. As to the method: (§1) Assays were performed with 2 CHO cell lines: • CHO-S cells expressing IgG1 mAb1, herein “Cells mAb1” or “mAb1 cells”. “mAb1” is a fully human monoclonal antibody directed against a soluble protein. Its isoelectric point (pI) is about 8.20-8.30. • CHO-K1 cells expressing IgG1 mAb2, herein “Cells mAb2” or “mAb2 cells”. “mAb2” is a humanised monoclonal antibody directed against a receptor found on the cell membrane. Its isoelectric point (pI) is about 9.30.
(§2) Cells expressing mAb2 were inoculated at 0.2×10^6 cells per milliliter (mL), whereas cells expressing mAb1 were inoculated at 0.3×10^6 cells per mL.
(§3) All assays were performed in fed-batch culture. The host cells were cultured in fed-batch system either in microplates (“Deep well plate”) or in Spin Tubes®, and incubated at 36.5° C., 90% relative humidity, 5% CO2 and 320 rpm shaking during 14 days.
(§4) Viable cell density and viability were measured with the Guava easyCyte® flow cytometer or with the ViCell.
(§5) Antibody titres were measured either with the fortéBIO Octet® or with Biacore C®.
(§6) Glycosylation profiles were established by capillary gel electrophoresis with laser-induced fluorescence (CGE-LIF). Dosages of aggregates and fragments were performed respectively via Size Exclusion High Performance Liquid Chromatography (SE-HPLC) and via SDS-capillary gel electrophoresis.
The host cells expressing the antibody mAb1 were cultured in presence of DIDS at concentrations ranging from 0.4 μM to 83 μM. The cell density and the viability were measured during the culture, whereas the titre was measured on day 14 (FIGS. 1A-1C). Addition of DIDS in the culture medium allowed increase of viable cell density and the titre. Specifically the concentration of 83 μM of DIDS allowed to double the cell density at day 7 (WD7) and to multiply the titre by factor 1.4 at the end of the culture process at day 14 (WD14). The viability was maintained, compared to the control, until day 12.

Data set [4] has the same test system. The format is cell-based, Chinese hamster. The conditions noted are these: Spin tubes. The procedure: as §1, §2, §3, §4, §5, §6
(§7) The efficacy of DIDS was also tested in Spin tubes at concentrations around 40 μM (41 μM) and/or around 85 μM (82 μM for mAb1 and 87 μM for mAb2). These concentrations are not toxic for the host cells expressing the antibodies mAb1 and mAb2 and allowed to obtain an important increase of the cell density and the titre of the antibody mAb1 (FIG. 3). As expected for the cells expressing the antibody mAb1, the viable cell density and the specific production increase in the presence of DIDS, which allowed at DIDS concentration of 82 μM to multiply the titre by factor 1.4 comparing to the control (FIGS. 3A-3D). […] Similar results are observed for mAb2: DIDS allowed the increase of the specific productivity of the host cells expressing the antibodies mAb2 (about 20% increase at day 10), and is able to maintain the viability of the cells for about 10 days (FIGS. 3E-H).

Data set [5] deals with CHO-K1 cells expressing IgG1 mAb2. The format is cell-based, Chinese hamster. The procedure: as §1, §2, §3, §4, §5, §6, §7
[6] abbreviates: in the presence of DIDS (41 μM, 82 μM).

The values below come from US10745663B2, “Methods for modulating production profiles of recombinant proteins” (ARES TRADING S.A., priority 2015, dated 2020).

Where two headings read alike, the source gives them in different places.

As to `CCCC(=O)[O-].[Na+]` [sodium butyrate], the cell viability (commonly a read-out of living cells in per cent, often relative to untreated cells) in data set [1] was “less than 45%”; in data set [2], 15%.

Consider `O=S(=O)([O-])c1cc(N=C=S)ccc1/C=C/c1ccc(N=C=S)cc1S(=O)(=O)[O-].[Na+].[Na+]` [DIDS, 4,4′-diisothiocyanostilbene-2,2′-disulfonic acid], for which the cell density result in data set [3] (83 μM DIDS, day 7 (WD7), microplates, versus control) is “double”. Further, the “titre multiplied by factor” value in data set [3] (83 μM DIDS, end of culture day 14 (WD14), microplates, versus control) was determined as 1.4; in data set [4] (82 μM DIDS, comparing to the control), 1.4. For the same compound, in data set [3] (compared to the control, until day 12, DIDS 0.4 μM to 83 μM), the viability result was “maintained”. Also, the “toxicity for the host cells expressing mAb1” value in data set [4] (DIDS 41 μM and 82 μM) is listed as “not toxic”. Besides, in data set [4] (setting [6]), the specific production result is “increase”. Also, the viable cell density result in data set [4] (setting [6]) was “increase”. The “toxicity for the host cells expressing mAb2” value in data set [5] (DIDS around 40 μM (41 μM) and/or 87 μM, Spin tubes) is “not toxic”. Further, the “time for which viability of the cells is maintained” value in data set [5] (Spin tubes, mAb2 cells) is recorded as “about 10 days”. The “increase of the specific productivity” value in data set [5] (day 10, Spin tubes, mAb2 cells) is “about 20%”.
